Earlier results, collected in US20090061517A1, “Cell culture apparatus and methods of making and using same” (priority 2007, published 2009).

Conditions: in humans

Row | SMILES | idiosyncratic hepatotoxicity / idiosyncratic adverse drug reactions
1 | C[C@H]1COc2c(N3CCN(C)CC3)c(F)cc3c(=O)c(C(=O)O)cn1c23 [levofloxacin] | without liability for causing idiosyncratic adverse drug reactions
2 | N[C@@H]1[C@H]2CN(c3nc4c(cc3F)c(=O)c(C(=O)O)cn4-c3ccc(F)cc3F)C[C@@H]12 [trovafloxacin] | linked to idiosyncratic hepatotoxicity in humans
